For ten compounds, inhibition and CC50 results are on record in patent US20140303164A1, “THERAPEUTIC COMPOUNDS” (Gilead Sciences, Inc., priority 2013, published 2014).

One data set relates to HIV-IIIb. The data set is described as follows: Test A: Antiviral Assay in MT4 Cells. Type of data set: cell-based, HIV-1. As to conditions: Human immunodeficiency virus 1, IIIB, MT4, 120 h; for inhibition at 0.2 µM: read-out: % inhibition at 0.2 μM; for inhibition at 2 µM: read-out: % inhibition at 2 μM. The method, then: Test A: Antiviral Assay in MT4 Cells
MT-4 cells were next mixed with HIV-IIIb at an m.o.i of 0.003 for 1 hour, after which time 35 μL of virus/cell mixture (2000 cells) was immediately added to each well containing 40 μL of diluted compound. The plates were then incubated at 37° C. for 5 days. […] Cell lysis was carried out by incubating at room temperature for 10 min and then chemiluminescence was read.

The nature of data set [1]: Test B: Cytotoxicity Assay. Particulars: human, uninfected MT-4 cells, same protocol as Test A. Type of data set: cell-based. A digest of the protocol: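 Uninfected MT-4 cells (2000 per well) incubated with diluted compound at 37° C. for 5 days, following the antiviral protocol without HIV-IIIb.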

Structures are written as SMILES.

By inhibition is commonly meant the drop in the measured response relative to a control, in per cent. The CC50 is the concentration that lowers cell viability or growth by half. Read a high CC50 as lower toxicity to the cells. Turning to `CC(C)(O)C#Cc1ccc(-c2ccc3[nH]nc(N)c3c2)c([C@H](Cc2cc(F)cc(F)c2)NC(=O)Cn2nc(C(F)(F)F)c3c2C(F)(F)[C@@H]2C[C@H]32)n1` [Compound 46, N—((S)-1-(3-(3-amino-1H-indazol-5-yl)-6-(3-hydroxy-3-methylbut-1-yn-1-yl)pyridin-2-yl)-2-(3,5-difluorophenyl)ethyl)-2-((3b-S,4aR)-5,5-difluoro-3-(trifluoromethyl)-3b,4,4a,5-tetrahydro-1H-cyclopropa[3,4]cyclopenta[1,2-c]pyrazol-1-yl)acetamide], in the data set on HIV-IIIb, the inhibition at 0.2 µM turned out to be 87% and the inhibition at 2 µM was 89%. In addition, the CC50 at 5 days in data set [1] stood at 10.5 µM.
As to `CCOC(=O)c1nn(CC(=O)N[C@@H](Cc2cc(F)cc(F)c2)c2nc(C#CC(C)(C)O)ccc2-c2ccc(Cl)c3c(NS(C)(=O)=O)nn(C)c23)c2c1[C@H]1C[C@H]1C2(F)F` [Compound 158G, (3bS,4aR)-ethyl 1-(2-(((S)-1-(3-(4-chloro-1-methyl-3-(methylsulfonamido)-1H-indazol-7-yl)-6-(3-hydroxy-3-methylbut-1-yn-1-yl)pyridin-2-yl)-2-(3,5-difluorophenyl)ethyl)amino)-2-oxoethyl)-5,5-difluoro-3b,4,4a,5-tetrahydro-1H-cyclopropa[3,4]cyclopenta[1,2-c]pyrazole-3-carboxylate], in the data set with HIV-IIIb, the inhibition at 0.2 µM was determined as 71% and the inhibition at 2 µM amounted to 71%. The CC50 at 5 days in data set [1] stood at 26.7 µM.
For the compound `Cn1nc(NS(C)(=O)=O)c2c(Cl)ccc(-c3ccc(C#CC(C)(C)O)nc3[C@H](Cc3cccc(F)c3)NC(=O)Cn3nc(C(F)(F)F)c4c3C(F)(F)[C@@H]3C[C@H]43)c21` [Compound 187G, N—((S)-1-(3-(4-chloro-1-methyl-3-(methylsulfonamido)-1H-indazol-7-yl)-6-(3-hydroxy-3-methylbut-1-yn-1-yl)pyridin-2-yl)-2-(3-fluorophenyl)ethyl)-2-((3b-S,4aR)-5,5-difluoro-3-(trifluoromethyl)-3b,4,4a,5-tetrahydro-1H-cyclopropa[3,4]cyclopenta[1,2-c]pyrazol-1-yl)acetamide], in the data set on HIV-IIIb, the inhibition at 0.2 µM was determined as 84% and the inhibition at 2 µM stood at 84%. This compound displayed a CC50 at 5 days in data set [1] of 19.8 µM.
On to `C[C@H](O)C(=O)Nc1nn(C)c2c(-c3ccc(C#CC(C)(C)O)nc3[C@H](Cc3cc(F)cc(F)c3)NC(=O)Cn3nc(C(F)F)c4c3C(F)(F)[C@@H]3C[C@H]43)ccc(Cl)c12` [Compound 103, (S)—N-(4-chloro-7-(2-((S)-1-(2-((3bS,4aR)-3-(difluoromethyl)-5,5-difluoro-3b,4,4a,5-tetrahydro-1H-cyclopropa[3,4]cyclopenta[1,2-c]pyrazol-1-yl)acetamido)-2-(3,5-difluorophenyl)ethyl)-6-(3-hydroxy-3-methylbut-1-yn-1-yl)pyridin-3-yl)-1-methyl-1H-indazol-3-yl)-2-hydroxypropanamide], for which, in the data set on HIV-IIIb, the inhibition at 0.2 µM was found to be 100% and the inhibition at 2 µM turned out to be 100%. Also, the CC50 at 5 days in data set [1] is 6.79 µM.
Turning to `CC(C)(O)C#Cc1ccc(-c2cc(C(=O)NC3COC3)c3nccn3c2)c([C@H](Cc2cc(F)cc(F)c2)NC(=O)Cn2nc(C(F)(F)F)c3c2C(F)(F)[C@@H]2C[C@H]32)n1` [Compound 35D, 6-(2-((S)-1-(2-((3bS,4aR)-5,5-difluoro-3-(trifluoromethyl)-3b,4,4a,5-tetrahydro-1H-cyclopropa[3,4]cyclopenta[1,2-c]pyrazol-1-yl)acetamido)-2-(3,5-difluorophenyl)ethyl)-6-(3-hydroxy-3-methylbut-1-yn-1-yl)pyridin-3-yl)-N-(oxetan-3-yl)imidazo[1,2-a]pyridine-8-carboxamide], in the data set with HIV-IIIb, the inhibition at 0.2 µM came out at 28% and the inhibition at 2 µM was determined as 91%. Further, the 50% cytotoxic concentration (CC50) at 5 days in data set [1] was 14.2 µM.
In the case of `Cn1nc(NC(=O)CO)c2c(Cl)ccc(-c3ccc(C#CC(C)(C)O)nc3[C@H](Cc3cc(F)cc(F)c3)NC(=O)Cn3nc(C(F)F)c4c3C(F)(F)[C@@H]3C[C@H]43)c21` [Compound 88, N—((S)-1-(3-(4-chloro-3-(2-hydroxyacetamido)-1-methyl-1H-indazol-7-yl)-6-(3-hydroxy-3-methylbut-1-yn-1-yl)pyridin-2-yl)-2-(3,5-difluorophenyl)ethyl)-2-((3b-S,4aR)-3-(difluoromethyl)-5,5-difluoro-3b,4,4a,5-tetrahydro-1H-cyclopropa[3,4]cyclopenta[1,2-c]pyrazol-1-yl)acetamide], in the data set with HIV-IIIb, the inhibition at 0.2 µM stood at 100% and the inhibition at 2 µM was 100%. In data set [1], this compound registered a CC50 at 5 days of 8.49 µM.
Take `CN(C)C(=O)c1nn(CC(=O)N[C@@H](Cc2cc(F)cc(F)c2)c2nc(C#CC(C)(C)O)ccc2-c2ccc(Cl)c3c(NS(C)(=O)=O)nn(C)c23)c2c1[C@H]1C[C@H]1C2(F)F` [Compound 164, (3bS,4aR)-1-(2-(((S)-1-(3-(4-chloro-1-methyl-3-(methylsulfonamido)-1H-indazol-7-yl)-6-(3-hydroxy-3-methylbut-1-yn-1-yl)pyridin-2-yl)-2-(3,5-difluorophenyl)ethyl)amino)-2-oxoethyl)-5,5-difluoro-N,N-dimethyl-3b,4,4a,5-tetrahydro-1H-cyclopropa[3,4]cyclopenta[1,2-c]pyrazole-3-carboxamide]: in the data set with HIV-IIIb, the inhibition at 0.2 µM turned out to be 96% and the inhibition at 2 µM worked out at 97%. The compound further had a CC50 at 5 days in data set [1] of 40.5 µM.
Turning to `Cn1nc(N)c2cccc(-c3ccc(C#CC(C)(C)O)nc3[C@H](Cc3cc(F)cc(F)c3)NC(=O)Cn3nc(C(F)F)c4c3C3CC3CC4)c21` (stereo partly drawn) [Compound 34, N—((S)-1-(3-(3-amino-1-methyl-1H-indazol-7-yl)-6-(3-hydroxy-3-methylbut-1-yn-1-yl)pyridin-2-yl)-2-(3,5-difluorophenyl)ethyl)-2-(3-(difluoromethyl)-5,5a,6,6a-tetrahydrocyclopropa[g]indazol-1(4H)-yl)acetamide], in the data set with HIV-IIIb, the inhibition at 0.2 µM stood at 78% and the inhibition at 2 µM worked out at 78%. The compound also gave a CC50 at 5 days in data set [1] of 8.76 µM.
Regarding `Cn1nc(NS(C)(=O)=O)c2cccc(-c3ccc(C#CC(C)(C)O)nc3[C@H](Cc3cc(F)cc(F)c3)NC(=O)Cn3nc(C(F)F)c4c3C(F)(F)CCC4(F)F)c21` [Compound 42, (S)-2-(3-(difluoromethyl)-4,4,7,7-tetrafluoro-4,5,6,7-tetrahydro-1H-indazol-1-yl)-N-(2-(3,5-difluorophenyl)-1-(6-(3-hydroxy-3-methylbut-1-yn-1-yl)-3-(1-methyl-3-(methylsulfonamido)-1H-indazol-7-yl)pyridin-2-yl)ethyl)acetamide], in the data set on HIV-IIIb, the inhibition at 0.2 µM came out at 100% and the inhibition at 2 µM is 100%. In data set [1], this compound had a CC50 at 5 days of 11.8 µM.
With `Cn1nc(NS(C)(=O)=O)c2c(Cl)ccc(-c3ccc(C#CC(C)(C)O)nc3[C@H](Cc3cc(F)cc(F)c3)NC(=O)Cn3nc(I)c4c3C(F)(F)[C@@H]3C[C@H]43)c21` [Compound 160, N—((S)-1-(3-(4-chloro-1-methyl-3-(methylsulfonamido)-1H-indazol-7-yl)-6-(3-hydroxy-3-methylbut-1-yn-1-yl)pyridin-2-yl)-2-(3,5-difluorophenyl)ethyl)-2-((3bS,4aR)-5,5-difluoro-3-iodo-3b,4,4a,5-tetrahydro-1H-cyclopropa[3,4]cyclopenta[1,2-c]pyrazol-1-yl)acetamide], in the data set with HIV-IIIb, the inhibition at 0.2 µM was determined as 100% and the inhibition at 2 µM turned out to be 100%. Also, in data set [1], the CC50 at 5 days came out at 20.5 µM.
